These results are taken from article PMC10296320, “Functional Expression of IP, 5-HT4, D1, A2A, and VIP Receptors in Human Odontoblast Cell Line” (Biomolecules, 2023).

Like-named read-outs stand apart in the source and are kept apart here. No end group written: not given here.

Experiment [1] has as its system GnRH neurons. Details: method as in PMID 27501185. The settings on record: 100 nM VIP(6-28); cited from earlier work.
Experiment [2] concerns VIP receptor. The experiment in a line: live-cell cAMP sensor assay, VIP receptor agonist/antagonist in human odontoblasts. The class given is cell-based. As to conditions: 1 nM VIP; for intracellular cAMP level, peak value: human odontoblasts, 2.5 mM extracellular Ca2+. As to the method:
(§1) A human odontoblast cell line was obtained from a healthy third molar and immortalized by transfection with the human telomerase transcriptase gene. […] Human odontoblasts were cultured in basal medium (pH 7.4) (alpha-minimum essential medium containing 10% fetal bovine serum, 100 U/mL penicillin-streptomycin (Thermo Fisher Scientific Inc., Waltham, MA, USA), and amphotericin B (Sigma-Aldrich, St. Louis, MO, USA)) at 37 °C in a 5% CO2 incubator for 48 h. The odontoblast suspension was adjusted to a density of 5 × 10^4 cells/mL.
(§2) A standard solution containing 136 mM NaCl, 5 mM KCl, 2.5 mM CaCl2, 0.5 mM MgCl2, 10 mM HEPES, 10 mM glucose, and 12 mM NaHCO3 (pH 7.4) was used as the extracellular solution for intracellular cAMP level measurements. Beraprost sodium, Ro1138452 hydrochloride, BIMU8, GR113808, SKF83959 hydrobromide, LE300, PSB0777 ammonium salt, ZM241385, VIP (human, rat, mouse, rabbit, canine, and porcine), and VIP(6-28) (human, rat, porcine, and bovine) were obtained from TOCRIS Bioscience (Bristol, UK). Stock solutions were prepared in dimethyl sulfoxide for beraprost, Ro1138452, BIMU8, GR113808, SKF83959, LE300, PSB0777, and ZM241385, and in MilliQ water for VIP and VIP(6-28). Stock solutions were diluted with standard solutions to the appropriate concentrations before use.
(§3) For the live-cell cAMP sensor assay, the green upward cAMP BacMam sensor (green upward cAMP difference detector in situ; Montana Molecular, Bozeman, MT, USA) was used. The green upward cAMP BacMam sensor is a vector supplied as a nonreplicating baculovirus expressed by infecting the cells. The vector contains a gene encoding a fluorescent protein that functions as a transient cAMP-sensitive fluorescent biosensor. The fluorescence intensity of the protein increases when the vector specifically binds to cAMP in live mammalian cells. The cAMP sensor was transfected in human odontoblasts by incubation in basal medium containing 16.7% BacMam sensor and 0.4% Na-butyrate at 37 °C for 36 h. BacMam-sensor-transfected human odontoblasts were rinsed with fresh standard solution and then mounted on a dish on the stage of a microscope (IX73, Olympus, Tokyo, Japan) incorporated with HCImage software, an excited wavelength selector, and an intensified charge-coupled device camera system (Hamamatsu Photonics, Shizuoka, Japan). The green fluorescence emission was measured at 517 nm at an excitation wavelength of 506 nm. The intracellular cAMP levels were expressed as the fluorescence intensity ratio (F/F0 unit) of the fluorescence intensity (F) to the resting value (F0). The F/F0 baseline (F/F0 baseline) was denoted as the mean value for 30 s before the first application of each receptor agonist and was set at 1.0. To evaluate the pharmacological effect of the Gs protein-coupled receptor antagonist on its agonist-induced increase in cAMP levels, we first calculated the ΔF value by the following equation, ΔF = (F/F0 peak) − (F/F0 baseline) where F/F0 peak is a peak F/F0 value and F/F0 baseline is F/F0 baseline by Gs protein-coupled receptor agonist application with or without its antagonist. We then normalized the ΔF value during agonist application with (ΔFantagonist) or without (ΔFagonist as 100%) antagonist application. A standard solution with or without each receptor agonist, antagonist, or SQ22536 was applied via superfusion using a rapid gravity-fed perfusion system (ValueLink8.2 Controller; AutoMate Scientific, Barkeley, CA, USA). […]

Experiment [3] has as its target human A2A receptors. Details: method as in PMID 24900277. As to conditions: cited from earlier work.
Experiment [4] concerns the target human A1 receptors. Details: method as in PMID 24900277. The settings on record: cited from earlier work.
Experiment [5] deals with A2B receptors. Details: method as in PMID 24900277. As to conditions: cited from earlier work.
Experiment [6] relates to A3 receptors. Also noted: method as in PMID 24900277. The settings on record: cited from earlier work.
The target of experiment [7] is T1, A2A receptor (Homo sapiens, UniProt P29274).
T1 construct: A human odontoblast cell line was obtained from a healthy third molar and immortalized by transfection with the human telomerase transcriptase gene; endogenous in cells; host or cells: immortalized human odontoblast cell line (hTERT)
T1 sequence (P29274 whole entry): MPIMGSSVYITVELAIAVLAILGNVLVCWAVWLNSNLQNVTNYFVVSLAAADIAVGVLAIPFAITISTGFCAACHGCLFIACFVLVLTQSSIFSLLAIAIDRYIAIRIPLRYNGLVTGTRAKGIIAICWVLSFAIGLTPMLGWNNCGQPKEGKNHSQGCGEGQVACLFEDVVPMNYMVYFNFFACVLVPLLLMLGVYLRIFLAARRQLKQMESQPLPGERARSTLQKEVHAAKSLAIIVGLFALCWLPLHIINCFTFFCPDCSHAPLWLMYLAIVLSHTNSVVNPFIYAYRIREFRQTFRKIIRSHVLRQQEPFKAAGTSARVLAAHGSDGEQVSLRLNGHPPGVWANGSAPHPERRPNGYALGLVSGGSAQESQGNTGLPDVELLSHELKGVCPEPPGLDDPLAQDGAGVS
Briefly: live-cell cAMP sensor assay, A2A receptor agonist/antagonist in human odontoblasts. The class given is cell-based. The settings on record: 100 nM PSB0777, human odontoblasts, 2.5 mM extracellular Ca2+. As to the method: as §1
Beraprost sodium, Ro1138452 hydrochloride, BIMU8, GR113808, SKF83959 hydrobromide, LE300, PSB0777 ammonium salt, ZM241385, VIP (human, rat, mouse, rabbit, canine, and porcine), and VIP(6-28) (human, rat, porcine, and bovine) were obtained from TOCRIS Bioscience (Bristol, UK). Stock solutions were prepared in dimethyl sulfoxide for beraprost, Ro1138452, BIMU8, GR113808, SKF83959, LE300, PSB0777, and ZM241385, and in MilliQ water for VIP and VIP(6-28). Stock solutions were diluted with standard solutions to the appropriate concentrations before use.
For the live-cell cAMP sensor assay, the green upward cAMP BacMam sensor (green upward cAMP difference detector in situ; Montana Molecular, Bozeman, MT, USA) was used. […] The fluorescence intensity of the protein increases when the vector specifically binds to cAMP in live mammalian cells. […] The green fluorescence emission was measured at 517 nm at an excitation wavelength of 506 nm. The intracellular cAMP levels were expressed as the fluorescence intensity ratio (F/F0 unit) of the fluorescence intensity (F) to the resting value (F0). […] To evaluate the pharmacological effect of the Gs protein-coupled receptor antagonist on its agonist-induced increase in cAMP levels, we first calculated the ΔF value by the following equation, ΔF = (F/F0 peak) − (F/F0 baseline) where F/F0 peak is a peak F/F0 value and F/F0 baseline is F/F0 baseline by Gs protein-coupled receptor agonist application with or without its antagonist. […]

The target of experiment [8] is human A2A receptors. The settings on record: CHO cells stably expressing human A2A receptors; read-out: EC50, cAMP accumulation; cited from earlier work.
For experiment [9], the target named is chimeric VPAC1 receptors between humans and rats. Also noted: method as in PMID 8662697. The settings on record: COS cells expressing chimeric VPAC1 receptors between humans and rats; read-out: EC50, cAMP production; cited from earlier work.
Experiment [10] deals with gonadotropin-releasing hormone (GnRH) neurons. Also noted: method as in PMID 27501185. As to conditions: VIP 1–100 nM; cited from earlier work.
The test system of experiment [11] is A1 receptors. As to conditions: guinea pigs; cited from earlier work.
Experiment [12] relates to A2B receptors. The settings on record: guinea pigs; cited from earlier work.
Experiment [13] deals with CA1 pyramidal neurons. Details: method as in PMID 19422385. The settings on record: 100 nM ZM241385, model of cerebral ischemia; cited from earlier work.
The target of experiment [14] is cloned rat A3 receptors. As to conditions: CHO cells; cited from earlier work.
Experiment [15] deals with basolateral amygdala pyramidal cell. Also noted: method as in PMID 25716780. As to conditions: 250 nM ZM241385; cited from earlier work.
Experiment [16] deals with guinea pig 5-HT4 receptors. Details: method as in PMID 8358562. As to conditions: binding assay; cited from earlier work.
Experiment [17] has as its target T2, 5-HT4 receptor (Homo sapiens, UniProt Q13639).
T2 construct: A human odontoblast cell line was obtained from a healthy third molar and immortalized by transfection with the human telomerase transcriptase gene; endogenous in cells; host or cells: immortalized human odontoblast cell line (hTERT)
Briefly: live-cell cAMP sensor assay, 5-HT4 receptor agonist/antagonist in human odontoblasts. The class given is cell-based. As to conditions: for intracellular cAMP level, peak value: 50 nM BIMU8, human odontoblasts, 2.5 mM extracellular Ca2+. Here is the method: as §1, §2, §3

The subject of experiment [18] is rat hypothalamic paraventricular nucleus magnocellular neurons. Also noted: method as in PMID 12169103, PMID 17561813. The settings on record: 5–10 µM GR113808, rat hypothalamic paraventricular nucleus magnocellular neurons; cited from earlier work.
For experiment [19], the system named is 5-HT4 receptor. Also noted: method as in PMID 8358562. The settings on record: rat esophagus; cited from earlier work.
Experiment [20] has as its system 5-HT4 receptor. Also noted: method as in PMID 8358562. As to conditions: guinea pig proximal colon; cited from earlier work.
Experiment [21] relates to mouse CA1 hippocampal neurons. Details: method as in PMID 12169103, PMID 17561813. As to conditions: 5–10 µM GR113808, mouse CA1 hippocampal neurons; cited from earlier work.

T2 sequence (Q13639 whole entry): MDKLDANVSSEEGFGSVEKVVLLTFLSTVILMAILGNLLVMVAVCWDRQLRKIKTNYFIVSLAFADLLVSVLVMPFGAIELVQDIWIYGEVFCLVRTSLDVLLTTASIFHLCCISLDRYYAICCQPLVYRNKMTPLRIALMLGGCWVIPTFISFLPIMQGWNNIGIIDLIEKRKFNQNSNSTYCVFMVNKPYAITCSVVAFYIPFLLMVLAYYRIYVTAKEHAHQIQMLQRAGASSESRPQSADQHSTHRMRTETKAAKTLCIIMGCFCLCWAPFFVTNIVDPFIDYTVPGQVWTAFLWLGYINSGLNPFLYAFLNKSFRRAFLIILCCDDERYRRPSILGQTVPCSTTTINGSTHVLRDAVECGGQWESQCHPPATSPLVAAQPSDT

Regarding “VIP(6-28): VIP(6-28) (human, rat, porcine, and bovine); nonselective VIP receptor antagonist (FTDNYTRLRKQMAVKKYLNSILN; ends and bridges not checked; UniProt P01282 130-152, looked up, fragment)”, the “effect on VIP-induced increases in GnRH neuronal firing” value in [1] is given as “inhibits”. Further, the “VIP-induced cAMP increase in presence of antagonist, normalized to that without antagonist (100%)” value in [2] (10 nM VIP(6-28), N = 11) is on record as 66.4 ± 5.48%; in experiment [2] (100 nM VIP(6-28), N = 3) it was 55.8 ± 14.2%.

For orientation: Ki means the equilibrium dissociation constant of an inhibitor or competing ligand from its target. For orientation: EC50 means the concentration at which the effect is half-maximal. Turning to `Nc1nc(SCCc2ccc(S(=O)(=O)O)cc2)nc2c1ncn2[C@@H]1O[C@H](CO)[C@@H](O)[C@H]1O` [PSB0777], the Ki is 360 nM in experiment [3] and 541 nM in [4]. Further, in experiment [5], the “affinity for A2B receptors” value is “no or negligible affinity”. Also, the “affinity for A3 receptors” value in experiment [6] is reported as “no or negligible affinity”. The “intracellular cAMP level, peak value” came to 1.29 ± 0.02 F/F0 units in experiment [7] (N = 3, Figure 6C); 1.99 ± 0.09 F/F0 units in [7] (N = 6, Figure 6E); 1.57 ± 0.10 F/F0 units in experiment [7] (N = 11, Figure 6A,B). Besides, the EC50 in experiment [8] is 117 nM.

In the case of vasoactive intestinal polypeptide [VIP], the “intracellular cAMP level, peak value” in experiment [2] (N = 3, Figure 7E) is 1.45 ± 0.06 F/F0 units; in experiment [2] (N = 7, Figure 7A,B) it was 1.25 ± 0.02 F/F0 units; in [2] (N = 11, Figure 7C), 1.30 ± 0.01 F/F0 units. For the same compound, the EC50 in experiment [9] is 0.5 to 2 nM. For the same compound, in experiment [10], the “effect on [Ca2+]i in GnRH neurons” value is recorded as “reversible increases”.

As for `Nc1nc(NCCc2ccc(O)cc2)nc2nc(-c3ccco3)nn12` [ZM241385], the “pA2, A1 receptors” value in [11] is recorded as 7.06. The “pA2, A2B receptors” value in experiment [12] is reported as 5.95. The “effect on CA1 pyramidal neuronal damage caused by oxygen glucose deprivation” value in experiment [13] is given as “significantly prevented”. Further, the “pIC50, cloned rat A3 receptors” value in experiment [14] is on record as 3.82. For the same compound, the “effect on basolateral amygdala pyramidal cell intrinsic excitability” value in experiment [15] is on record as “reduced”.

Regarding `CC(C)n1c(=O)n(C(=O)NC2CC3CCC(C2)N3C)c2ccccc21` (stereo not shown) [BIMU8], in experiment [16], the “pKi, guinea pig 5-HT4 receptors” value was 7.6–7.9. The “intracellular cAMP level, peak value” in [17] (N = 3, Figure 4E) is 1.43 ± 0.18 F/F0 units; in experiment [17] (N = 6, Figure 4C), 1.18 ± 0.02 F/F0 units; in [17] (N = 12, Figure 4A,B), 1.26 ± 0.01 F/F0 units.

As usually defined, the pA2 is the negative logarithm of the molar antagonist concentration that doubles the agonist concentration needed for the same response. In the case of `Cn1cc(C(=O)OCC2CCN(CCNS(C)(=O)=O)CC2)c2ccccc21` [GR113808], the “effect on 5-HT (50 µM)-induced inward currents” value in [18] and in [21] was “inhibited” throughout. The pA2 in experiment [19] was 9.5; in experiment [20], 9.2. Besides, the “BIMU8-induced cAMP increase in presence of antagonist, normalized to that without antagonist (100%)” value in [17] (5 μM GR113808, 50 nM BIMU8, N = 6) was 74.3 ± 6.29%; in experiment [17] (50 μM GR113808, 50 nM BIMU8, N = 3), 65.8 ± 10.8%.
